Reference: US8252723B2, “Substituted 1-(3-pyridinyl)pyrazol-4-ylacetic acids, processes for their preparation and their use as herbicides and plant growth regulators” (Bayer CropScience AG, priority 2006, dated 2012)

These molecules were tested on summer wheat of the cultivar 'Triso' (assay: Plant growth regulation test: culm stabilization of crop plants). Settings: application rate of 30 to 300 g of active substance per hectare, treated at stage BBCH 31, culm length measured after ears had formed.
Type: in vivo
Experimental: With stirring, the compound of the formula (I) in question was, in the form of a water-dispersible powder, together with a surfactant (customary adjuvant at an application rate of 1 l/ha), mixed with water such that a homogenous spray liquor was formed, and applied at an application rate of 300 l of water/ha (converted).
Seeds of summer wheat of the cultivar ‘Triso’ were sown at a depth of 1 cm in plant pots and cultivated outdoors until treatment.
The plants were treated on a laboratory track sprayer with spray liquors of the test substances at macrostage 3 after having reached about 10% of the maximum longitudinal growth typical for the cultivar (stage BBCH 31) and, after the treatment, returned outdoors.
After the ears had formed, the length of the culms were measured. The culm stabilization was evaluated as a percentage of the untreated control.

| SMILES | longitudinal growth (culm length) of summer wheat |
| --- | --- |
| Cc1nn(-c2cccnc2)c(-c2ccco2)c1CC(=O)O [Example 1-4] | effectively shortened |
| COc1ccc(-n2nc(C)c(CC(=O)O)c2-c2ccccc2)cn1 [Example 1-5] | effectively shortened |
| Cc1nn(-c2ccc(Cl)nc2)c(-c2ccccc2)c1CC(=O)O [Example 1-7] | effectively shortened |
| Cc1nn(-c2cnccc2C(F)(F)F)c(-c2ccccc2)c1CC(=O)O [Example 1-8] | effectively shortened |
| Cc1nn(-c2ccc(C(F)(F)F)nc2)c(-c2ccccc2)c1CC(=O)O [Example 1-9] | effectively shortened |
| Cc1ccc(-n2nc(C)c(CC(=O)O)c2-c2ccccc2)c(C)n1 [Example 1-11] | effectively shortened |
| Cc1nn(-c2ccc(Cl)nc2Cl)c(-c2ccccc2)c1CC(=O)O [Example 1-12] | effectively shortened |
| COc1ccc(-c2c(CC(=O)O)c(C)nn2-c2cnccc2C)cc1 [Example 1-13] | effectively shortened |
| COc1ccc(-c2c(CC(=O)O)c(C)nn2-c2cccnc2)cc1 [Example 1-14] | effectively shortened |
| Cc1ccc(-c2c(CC(=O)O)c(C)nn2-c2cccnc2)cc1 [Example 1-16] | effectively shortened |
| Cc1nn(-c2cccnc2)c(-c2cccc(C(F)(F)F)c2)c1CC(=O)O [Example 1-18] | effectively shortened |
| Cc1ccncc1-n1nc(C)c(CC(=O)O)c1-c1cccc(C(F)(F)F)c1 [Example 1-19] | effectively shortened |
| Cc1ccncc1-n1nc(C)c(CC(=O)O)c1-c1ccc(Cl)c(Cl)c1 [Example 1-20] | effectively shortened |
| Cc1ccncc1-n1nc(C)c(CC(=O)O)c1-c1cccc(Cl)c1 [Example 1-21] | effectively shortened |
| Cc1ccncc1-n1nc(C)c(CC(=O)O)c1-c1ccccc1Cl [Example 1-22] | effectively shortened |
| Cc1ccncc1-n1nc(C)c(CC(=O)O)c1-c1ccc(Cl)cc1Cl [Example 1-23] | effectively shortened |
| Cc1ccncc1-n1nc(C)c(CC(=O)O)c1-c1ccc(C(F)(F)F)cc1 [Example 1-24] | effectively shortened |
| Cc1ccncc1-n1nc(C)c(CC(=O)O)c1-c1ccc(Cl)cc1 [Example 1-25] | effectively shortened |
| Cc1nn(-c2cccnc2)c(-c2ccc(Cl)cc2)c1CC(=O)O [Example 1-26] | effectively shortened |
| Cc1nn(-c2cccnc2)c(-c2ccc(Cl)c(Cl)c2)c1CC(=O)O [Example 1-27] | effectively shortened |
| Cc1nn(-c2cccnc2)c(-c2ccc(C(F)(F)F)cc2)c1CC(=O)O [Example 1-28] | effectively shortened |
| Cc1nn(-c2cnccc2Cl)c(-c2ccc(Cl)cc2)c1CC(=O)O [Example 1-29] | effectively shortened |
| Cc1nn(-c2cnccc2Cl)c(-c2ccccc2)c1CC(=O)O [Example 1-30] | effectively shortened |
| Cc1nn(-c2cccnc2)c(-c2ccccc2Cl)c1CC(=O)O [Example 1-31] | effectively shortened |
| Cc1ccncc1-n1nc(C)c(CC(=O)O)c1-c1ccc(C(C)(C)C)cc1 [Example 1-32] | effectively shortened |

| SMILES | longitudinal growth (culm length) of summer wheat |
| --- | --- |
| Cc1cc(C)cc(-c2c(CC(=O)O)c(C)nn2-c2cnccc2C)c1 [Example 1-33] | effectively shortened |
| COc1ccncc1-n1nc(C)c(CC(=O)O)c1-c1ccccc1 [Example 1-34] | effectively shortened |
| COc1ccncc1-n1nc(C)c(CC(=O)O)c1-c1ccc(Cl)cc1 [Example 1-35] | effectively shortened |
| Cc1ccc(-c2c(CC(=O)O)c(C)nn2-c2cnccc2C)cc1 [Example 1-36] | effectively shortened |
| Cc1ccncc1-n1nc(C)c(CC(=O)O)c1-c1ccc(F)cc1 [Example 1-37] | effectively shortened |
| Cc1cccc(-c2c(CC(=O)O)c(C)nn2-c2cnccc2C)c1 [Example 1-38] | effectively shortened |
| Cc1ccncc1-n1nc(C)c(CC(=O)O)c1-c1ccc(C(=O)O)cc1 [Example 1-39] | effectively shortened |
| Cc1ccncc1-n1nc(C)c(CC(=O)O)c1-c1cccc(Br)c1 [Example 1-40] | effectively shortened |
| Cc1ccncc1-n1nc(C)c(CC(=O)O)c1-c1ccc(-c2ccccc2)cc1 [Example 1-41] | effectively shortened |
| Cc1nn(-c2cccnc2)c(-c2ccc(C(=O)O)cc2)c1CC(=O)O [Example 1-42] | effectively shortened |
| Cc1cc(C)cc(-c2c(CC(=O)O)c(C)nn2-c2cccnc2)c1 [Example 1-43] | effectively shortened |
| CSc1ccncc1-n1nc(C)c(CC(=O)O)c1-c1ccc(Cl)cc1 [Example 1-45] | effectively shortened |
| Cc1ccc(-c2c(CC(=O)O)c(C)nn2-c2cccnc2)cc1Cl [Example 1-46] | effectively shortened |
| Cc1nn(-c2cccnc2)c(-c2ccc(Cl)c(C(F)(F)F)c2)c1CC(=O)O [Example 1-47] | effectively shortened |
| Cc1ccncc1-n1nc(C)c(CC(=O)O)c1-c1ccc(Cl)c(C(F)(F)F)c1 [Example 1-48] | effectively shortened |
| Cc1ccc(-c2c(CC(=O)O)c(C)nn2-c2cnccc2C)cc1Cl [Example 1-49] | effectively shortened |
| Cc1cncc(-n2nc(C)c(CC(=O)O)c2-c2ccccc2)c1 [Example 1-50] | effectively shortened |
| Cc1cncc(-n2nc(C)c(CC(=O)O)c2-c2ccc(Cl)cc2)c1 [Example 1-51] | effectively shortened |
| Cc1ccncc1-n1nc(C)c(CC(=O)O)c1-c1cccs1 [Example 1-52] | effectively shortened |
| Cc1ccncc1-n1nc(C)c(CC(=O)O)c1-c1sccc1C [Example 1-53] | effectively shortened |
| Cc1csc(-c2c(CC(=O)O)c(C)nn2-c2cnccc2C)c1 [Example 1-54] | effectively shortened |
| Cc1ccncc1-n1nc(C)c(CC(=O)O)c1-c1ccc(Cl)s1 [Example 1-55] | effectively shortened |
| Cc1ccncc1-n1nc(C)c(CC(=O)O)c1-c1ccsc1 [Example 1-56] | effectively shortened |
| Cc1nn(-c2cccnc2)c(-c2cccs2)c1CC(=O)O [Example 1-57] | effectively shortened |
| Cc1ccsc1-c1c(CC(=O)O)c(C)nn1-c1cccnc1 [Example 1-58] | effectively shortened |
